According to patent US7407763B2, “Systems and methods for detecting and regulating metastasis” (The Regents of the University of Michigan, priority 2004, dated 2008):

Assays:
RKIP mRNA expression = RKIP mRNA expression in RWPE cells by real-time RT-PCR; type: cell-based, human
human RKIP promoter = settings: RWPE cells, DHT 5 nM, 10 nM, 24 h, compared to basal activity
putative RKIP ARE = settings: RWPE nuclear extracts, 5 nM DHT, as early as 30 min
Experimental: The reaction was allowed to proceed for 30 min at room temperature.

C4-2B cells = assay: In vitro invasion assay with protein kinase inhibitors; type: cell-based, human; settings: in vitro invasion through matrix, C4-2B cells (FIG. 4)
Experimental: The invasiveness of control and sense or antisense-transfected cell clones was evaluated in 24-well transwell chambers (Costar, Cambridge, Mass.) as directed by the manufacturer. Briefly, the upper and lower culture compartments were separated by polycarbonate filters with 8-μm pore size. Some wells were coated with 100 μg/cm^2 collagen matrix (MATRIGEL, Collaborative Biomedical Products, Bedford, Mass.) that was reconstituted by adding 0.5 ml of serum-free T medium for 2 hours. […] Cell penetration through the membrane was quantified by staining the porous membrane with a Diff-Quik stain kit. The numbers of cells that penetrated through the membrane were counted in five microscopic fields (×200) per filter. Invasive ability was then determined as the proportion of cells that invaded through the matrix-coated membrane relative to the number of cells that migrated through the uncoated membrane (baseline migration). […]
Furthermore, because RKIP inhibits tumor invasiveness, it was investigated whether RKIP exerts its metastasis suppressor gene function through regulation of MEK activation. […] Accordingly, the effect of a variety of kinase inhibitors was evaluated, including a MEK inhibitor (PD098059) on in vitro invasion. […]

RKIP mRNA levels = RKIP mRNA levels in LNCaP cells by real time PCR; type: cell-based, human; settings: IL-6 50 ng/ml, 6 or 24 hours (FIG. 7)
Experimental: LNCaP cells were plated in culture dishes and treated with IL-6 (50 ng/ml) or vehicle for 6 or 24 hours. Total RNA was collected and subjected to real time PCR for RKIP mRNA levels. RKIP mRNA levels were normalized to β-galactosidase mRNA levels.

Compound: C[C@@H]1C[C@@H]([C@H](O)CC2CC(=O)NC(=O)C2)C(=O)[C@@H](C)C1 [CHX, cycloheximide]
- expression of RKIP, treatment alone (RKIP mRNA expression; RWPE cells, 24 h, CHX alone (FIG. 12C)): did not change the expression of RKIP

Compound: CC(O)(CS(=O)(=O)c1ccc(F)cc1)C(=O)Nc1ccc(C#N)c(C(F)(F)F)c1 (stereo not drawn) [Casodex]
- effect on DHT induction of RKIP mRNA expression (RKIP mRNA expression; RWPE cells, 24 h, casodex in the presence of DHT (FIG. 12B)): substantially reduced

Compound: C[C@]12CCC(=O)C[C@@H]1CC[C@@H]1[C@@H]2CC[C@]2(C)[C@@H](O)CC[C@@H]12 [DHT, dihydrotestosterone]
- increase in luciferase activity of RKIP promoter plasmid (human RKIP promoter): approximately 3 fold
- RKIP expression in cells treated with CHX (RKIP mRNA expression): increase in RKIP expression
- increase in RKIP mRNA at 1 nM (RKIP mRNA expression): significant (P<0.01) increase
- induction of RKIP expression at 0.1 nM (RKIP mRNA expression): almost no induction
- maximum induction of RKIP mRNA expression (RKIP mRNA expression): 1.5 fold
- induction of RKIP expression at saturating amounts (>=5 nM) (RKIP mRNA expression; RWPE cells, 24 h, >=5 nM DHT): significant (P<0.01) induction
- RKIP mRNA expression versus DHT concentration (RKIP mRNA expression; RWPE cells, 24 h, various concentrations of DHT): dose-dependent increase
- DNA binding activity to RKIP ARE probe (putative RKIP ARE): rapid increase in DNA binding activity

Compound: COc1cccc(-c2cc(=O)c3ccccc3o2)c1N [PD098059]
- decrease of invasive ability of C4-2B cells (C4-2B cells): 41%

Compound: IL-6: the cytokine interleukin-6
- RKIP expression in LNCaP prostate cancer cells (RKIP mRNA levels): reduces RKIP expression
